# Test results published in US20210276987A1, “PHARMACEUTICAL AGENTS FOR USE IN SMOKING AND TOBACCO CESSATION” (Washington State University, priority 2018, published 2021).
# Where a name gives a salt, the structure may show the parent alone. Read-outs that look alike come from different tables or passages of the source.
# Tests used:
# [1] = target: T1, CYP2A6 (Homo sapiens, UniProt P11509); test: biochemical
# T1 sequence (P11509 1-494): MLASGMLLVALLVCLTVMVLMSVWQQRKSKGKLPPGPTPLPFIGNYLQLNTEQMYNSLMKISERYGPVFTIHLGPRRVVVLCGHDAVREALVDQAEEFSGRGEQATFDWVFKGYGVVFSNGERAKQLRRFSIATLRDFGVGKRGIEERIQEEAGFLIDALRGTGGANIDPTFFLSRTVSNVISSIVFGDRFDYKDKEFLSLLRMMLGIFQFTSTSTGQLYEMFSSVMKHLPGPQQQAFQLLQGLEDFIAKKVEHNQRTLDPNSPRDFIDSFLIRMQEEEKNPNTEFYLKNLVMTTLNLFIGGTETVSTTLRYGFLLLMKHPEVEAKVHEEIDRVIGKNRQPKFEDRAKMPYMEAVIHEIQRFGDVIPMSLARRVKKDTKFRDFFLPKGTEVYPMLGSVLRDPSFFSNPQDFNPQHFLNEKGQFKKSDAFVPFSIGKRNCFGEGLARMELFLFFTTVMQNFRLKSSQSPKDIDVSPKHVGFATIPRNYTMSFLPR
# [2] = target: T2, UGT2B10 (Homo sapiens, UniProt P36537); test: biochemical
# T2 sequence (P36537 24-528): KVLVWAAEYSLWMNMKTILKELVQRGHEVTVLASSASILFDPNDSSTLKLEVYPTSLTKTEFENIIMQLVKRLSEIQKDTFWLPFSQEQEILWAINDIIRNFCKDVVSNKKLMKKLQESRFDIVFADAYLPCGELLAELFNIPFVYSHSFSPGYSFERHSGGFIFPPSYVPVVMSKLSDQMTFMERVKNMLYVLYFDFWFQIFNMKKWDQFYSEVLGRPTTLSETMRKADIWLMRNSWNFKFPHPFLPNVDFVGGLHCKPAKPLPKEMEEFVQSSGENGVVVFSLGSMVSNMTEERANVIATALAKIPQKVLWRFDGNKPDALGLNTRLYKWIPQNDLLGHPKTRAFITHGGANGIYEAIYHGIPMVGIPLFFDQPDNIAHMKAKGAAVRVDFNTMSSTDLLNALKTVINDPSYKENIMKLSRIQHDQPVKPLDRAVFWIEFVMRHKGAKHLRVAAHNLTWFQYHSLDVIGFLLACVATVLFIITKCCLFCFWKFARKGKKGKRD
# Description: Initial screening assays were performed as described above for the CYP assays using 1 μM or 10 μM of each of the NAs. The inhibitory effects of each agent against UGT2B10 was performed using the known UGT2B10-specific probe substrate, nicotine, in pooled human liver microsomes. […] Pre-incubations containing 500 μM nicotine and 1 or 10 μM NA were subsequently performed at 37° C. in 50 mM Tris-HCl buffer (pH 7.5, in a final volume of 50 μL) and 10 mM MgCl2 for 5 minutes.
# [3] = in vitro; conditions: for T1/2 (min) in human liver microsomes / half-life (T1/2) in human liver microsomes: pH 7.4; for half-life at 10 μM: human, microsomes
# Description: In vitro stability studies. […] Half-lives were calculated using the one-phase exponential decay equation (GraphPad).
# [4] = target: T1, CYP2A6; conditions: for IC50: both, human, microsomes, pH 7.4
# [5] = target: T1, CYP2A6; test: in vitro; conditions: both, microsomes, pH 7.4, IC50 against CYP2A6 (μM)
# [6] = test system: CYPs 1A2, 2B6, 2C8, 2C9, 2C19, 2D6, 2E1 and 3A4
# [7] = target: T3, CYP1A2 (Homo sapiens, UniProt P05177); conditions: both, microsomes, pH 7.4
# T3 sequence (P05177 1-516): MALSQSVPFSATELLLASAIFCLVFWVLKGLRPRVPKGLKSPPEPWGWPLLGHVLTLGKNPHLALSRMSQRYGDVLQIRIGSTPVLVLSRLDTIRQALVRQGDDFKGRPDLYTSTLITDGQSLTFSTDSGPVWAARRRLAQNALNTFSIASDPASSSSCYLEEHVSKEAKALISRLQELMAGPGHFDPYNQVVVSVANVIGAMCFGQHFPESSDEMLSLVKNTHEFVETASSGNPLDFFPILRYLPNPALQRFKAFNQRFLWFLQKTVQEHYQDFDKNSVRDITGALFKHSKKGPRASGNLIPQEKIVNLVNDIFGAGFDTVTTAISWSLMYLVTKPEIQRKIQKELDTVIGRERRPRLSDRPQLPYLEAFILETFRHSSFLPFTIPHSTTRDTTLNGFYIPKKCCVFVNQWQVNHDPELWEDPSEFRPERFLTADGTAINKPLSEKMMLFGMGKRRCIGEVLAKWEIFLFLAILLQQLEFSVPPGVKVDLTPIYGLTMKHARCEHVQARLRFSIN
# [8] = target: T4, CYP2C8 (Homo sapiens, UniProt P10632); conditions: Table 6
# T4 sequence (P10632 1-490): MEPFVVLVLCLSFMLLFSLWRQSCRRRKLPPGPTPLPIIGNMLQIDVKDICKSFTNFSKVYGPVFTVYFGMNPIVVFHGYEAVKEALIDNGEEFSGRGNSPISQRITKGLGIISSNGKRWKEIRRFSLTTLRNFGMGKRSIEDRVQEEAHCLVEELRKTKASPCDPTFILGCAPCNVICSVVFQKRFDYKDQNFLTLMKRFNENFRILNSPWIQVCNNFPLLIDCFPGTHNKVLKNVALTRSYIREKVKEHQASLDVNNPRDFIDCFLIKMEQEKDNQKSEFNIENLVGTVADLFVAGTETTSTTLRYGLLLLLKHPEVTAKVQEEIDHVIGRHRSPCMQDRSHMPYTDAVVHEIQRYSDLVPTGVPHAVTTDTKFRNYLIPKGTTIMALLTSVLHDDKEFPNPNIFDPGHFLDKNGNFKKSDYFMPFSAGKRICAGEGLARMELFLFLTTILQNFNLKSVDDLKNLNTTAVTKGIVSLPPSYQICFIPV
# [9] = target: CYP2C9 (Homo sapiens, UniProt P11712); test: CYP2C9 inhibition assay, human liver microsomes, diclofenac probe (cocktail); conditions: Table 6
# [10] = target: CYP2E1 (Homo sapiens, UniProt P05181); conditions: Table 6
# [11] = target: T5, CYP2B6 (Homo sapiens, UniProt P20813); conditions: Table 6
# T5 sequence (P20813 1-491): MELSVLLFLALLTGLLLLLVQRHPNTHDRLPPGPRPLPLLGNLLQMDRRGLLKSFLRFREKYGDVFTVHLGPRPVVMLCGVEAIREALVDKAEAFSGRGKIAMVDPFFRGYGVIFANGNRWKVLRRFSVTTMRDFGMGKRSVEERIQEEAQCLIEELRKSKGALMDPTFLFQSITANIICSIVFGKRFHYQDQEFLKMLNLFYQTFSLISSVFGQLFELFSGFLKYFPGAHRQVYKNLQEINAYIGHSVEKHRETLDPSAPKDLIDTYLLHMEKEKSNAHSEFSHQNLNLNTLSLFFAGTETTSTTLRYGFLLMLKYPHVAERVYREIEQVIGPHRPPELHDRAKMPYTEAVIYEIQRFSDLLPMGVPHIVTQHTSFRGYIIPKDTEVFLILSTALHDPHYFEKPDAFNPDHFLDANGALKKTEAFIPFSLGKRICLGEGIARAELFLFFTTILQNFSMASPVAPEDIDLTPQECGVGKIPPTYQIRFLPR
# [12] = target: CYP2C19 (Homo sapiens, UniProt P33261); test: CYP2C19 inhibition assay, human liver microsomes, omeprazole probe (cocktail); conditions: Table 6
# [13] = target: CYP2D6 (Homo sapiens, UniProt P10635); test: CYP2D6 inhibition assay, human liver microsomes, dextromethorphan probe (cocktail); conditions: Table 6
# [14] = IC50 against CYP2A6 (μM), Table 5, alkyne linker agents, pooled human liver microsomes, coumarin […]
# [15] = IC50 against CYP2A6, human liver microsomes
# Sequence of CYP2C19 (P33261 whole entry): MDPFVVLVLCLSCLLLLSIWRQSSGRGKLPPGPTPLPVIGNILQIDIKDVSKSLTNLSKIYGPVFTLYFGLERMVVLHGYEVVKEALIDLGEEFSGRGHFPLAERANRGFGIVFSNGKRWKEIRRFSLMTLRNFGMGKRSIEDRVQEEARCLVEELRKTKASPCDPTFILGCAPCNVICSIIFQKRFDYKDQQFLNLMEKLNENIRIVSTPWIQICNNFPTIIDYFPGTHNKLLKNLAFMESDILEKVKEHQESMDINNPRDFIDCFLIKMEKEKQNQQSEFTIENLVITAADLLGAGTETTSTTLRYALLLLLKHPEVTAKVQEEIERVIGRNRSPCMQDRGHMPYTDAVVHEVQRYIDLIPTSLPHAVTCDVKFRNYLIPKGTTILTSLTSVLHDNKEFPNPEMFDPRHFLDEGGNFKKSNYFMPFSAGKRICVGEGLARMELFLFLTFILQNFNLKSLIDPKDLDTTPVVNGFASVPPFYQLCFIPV
# Sequence of CYP2C9 (P11712 whole entry): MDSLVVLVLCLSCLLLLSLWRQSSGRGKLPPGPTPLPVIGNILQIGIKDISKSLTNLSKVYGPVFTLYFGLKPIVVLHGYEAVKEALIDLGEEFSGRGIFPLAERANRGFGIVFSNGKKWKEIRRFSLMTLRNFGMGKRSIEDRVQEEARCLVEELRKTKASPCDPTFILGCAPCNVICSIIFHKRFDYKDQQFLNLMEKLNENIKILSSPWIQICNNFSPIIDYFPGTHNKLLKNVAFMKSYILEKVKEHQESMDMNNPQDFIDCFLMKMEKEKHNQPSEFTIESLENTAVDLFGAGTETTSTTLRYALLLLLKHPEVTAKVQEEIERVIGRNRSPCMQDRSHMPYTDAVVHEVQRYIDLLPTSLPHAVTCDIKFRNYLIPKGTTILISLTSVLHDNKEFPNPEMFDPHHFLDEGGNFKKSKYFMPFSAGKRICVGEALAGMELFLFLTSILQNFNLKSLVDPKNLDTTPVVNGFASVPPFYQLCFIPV
# Sequence of CYP2D6 (P10635 whole entry): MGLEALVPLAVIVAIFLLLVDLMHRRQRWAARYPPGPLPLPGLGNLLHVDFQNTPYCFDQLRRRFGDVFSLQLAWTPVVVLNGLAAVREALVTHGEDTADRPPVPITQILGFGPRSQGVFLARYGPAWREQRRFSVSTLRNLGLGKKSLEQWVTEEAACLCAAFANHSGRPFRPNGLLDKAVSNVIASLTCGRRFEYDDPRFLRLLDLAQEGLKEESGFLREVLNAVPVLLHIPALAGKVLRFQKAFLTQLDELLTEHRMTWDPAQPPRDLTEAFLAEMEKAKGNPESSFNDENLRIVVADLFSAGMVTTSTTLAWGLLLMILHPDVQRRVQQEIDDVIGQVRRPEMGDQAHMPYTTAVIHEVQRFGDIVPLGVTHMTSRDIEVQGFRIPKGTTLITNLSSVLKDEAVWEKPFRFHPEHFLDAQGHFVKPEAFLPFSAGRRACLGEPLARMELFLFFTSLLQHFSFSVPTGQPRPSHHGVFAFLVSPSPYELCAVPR
# Sequence of CYP2E1 (P05181 whole entry): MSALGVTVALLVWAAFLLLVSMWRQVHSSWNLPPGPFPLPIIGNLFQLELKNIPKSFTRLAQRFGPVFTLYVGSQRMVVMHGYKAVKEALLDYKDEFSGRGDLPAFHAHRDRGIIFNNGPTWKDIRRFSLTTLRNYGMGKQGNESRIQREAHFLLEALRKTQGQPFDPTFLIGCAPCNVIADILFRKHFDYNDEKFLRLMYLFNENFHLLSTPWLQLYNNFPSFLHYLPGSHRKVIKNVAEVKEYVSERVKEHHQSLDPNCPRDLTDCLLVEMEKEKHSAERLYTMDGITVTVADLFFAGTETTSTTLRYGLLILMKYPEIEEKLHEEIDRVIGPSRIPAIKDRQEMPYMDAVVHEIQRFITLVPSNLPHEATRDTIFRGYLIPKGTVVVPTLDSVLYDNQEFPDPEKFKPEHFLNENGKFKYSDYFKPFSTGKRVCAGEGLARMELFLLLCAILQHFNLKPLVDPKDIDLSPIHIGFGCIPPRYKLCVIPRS
smiles,measurement,setting,value
"Cc1ccncc1C#CCN [Compound C, 3-(4-methylpyridin-3-yl)prop-2-yn-1-amine]",IC50,[1]; IC50 against CYP2A6,< 1 µM
same,IC50,[2]; IC50 against UGT2B10,< 60 µM
same,IC50,[2]; IC50 against UGT2B10 (μM),58 µM
same,T1/2 (min) in human liver microsomes,[3],8.4 min
same,half-life (T1/2) in human liver microsomes,[3],less than 25 minutes
same,IC50,[4],55 nM
"Cc1cncc(C#CCN)c1 [Compound D, 3-(5-methylpyridin-3-yl)prop-2-yn-1-amine]",IC50,[5],10 µM
same,IC50,[2]; IC50 against UGT2B10,> 1000 µM
same,IC50,[2]; IC50 against UGT2B10 (μM),> 1000 µM
"Cc1ncccc1C#CCN [Compound F, 3-(2-methylpyridin-3-yl)prop-2-yn-1-amine]",IC50,[1]; [14],> 10 µM
same,IC50,"[2]; IC50 against UGT2B10 (μM), Table 9, pooled human liver microsomes, nicotine 500 μM",286 µM
"CCc1ccncc1C#CCN [Compound H, 3-(4-ethylpyridin-3-yl)prop-2-yn-1-amine]",IC50,[1]; IC50 against CYP2A6,< 1 µM
same,IC50,[2]; IC50 against UGT2B10,> 1000 µM
same,IC50,[2]; IC50 against UGT2B10 (μM),> 1000 µM
same,T1/2 (min) in human liver microsomes,[3],9.8 min
same,half-life (T1/2) in human liver microsomes,[3],less than 25 minutes
same,IC50,[4],830 nM
"NCC#Cc1cnccc1Cl [Compound L, 3-(4-chloropyridin-3-yl)prop-2-yn-1-amine Dihydrochloride]",IC50,[1]; [14],0.13 µM
same,IC50,[1]; [15],< 1 µM
same,IC50 ratio CYPhepatic/CYP2A6 against all hepatic CYP enzymes tested,[6],> 25
same,IC50 ratio CYP1A2/CYP2A6,[7],33
same,IC50 ratio CYP2C8/CYP2A6,[8],>192
same,IC50 ratio CYP2C9/CYP2A6,[9],>385
same,IC50 ratio CYP2E1/CYP2A6,[10],10
same,half-life at 10 μM,"[3]; pH 7.4, T1/2 (min) in human liver microsomes",28 min
same,IC50 ratio CYP2B6/CYP2A6,[11],24
same,IC50 ratio CYP2C19/CYP2A6,[12],61
same,IC50 ratio CYP2D6/CYP2A6,[13],29
same,IC50 fold lower than that observed for the reference agent,[4]; CYP2A6,1.2 fold
"NCC#Cc1cnccc1-c1ccco1 [Compound M, 3-(4-Furan-2-yl-pyridin-3-yl)-prop-2-ynylamine Dihydrochloride]",IC50,[1]; [15],< 1 µM
same,IC50,[4],560 nM
"NCC#Cc1cnccc1-c1ccncc1 [Compound P, 3-([4,4′-Bipyridin]-3′-yl)prop-2-yn-1-amine Trihydrochloride]",IC50,[1]; [15],< 10 µM
same,T1/2 (min) in human liver microsomes,[3]; 10 μM,36 min
same,IC50,[4],3600 nM
"NCC#Cc1cnccc1-c1cncnc1 [Compound Q, 3-(4-(Pyrimidin-5-yl)pyridin-3-yl)prop-2-yn-1-amine Trihydrochloride]",IC50,[1]; [15],< 10 µM
same,T1/2 (min) in human liver microsomes,[3]; 10 μM,>120 min
same,half-life at 10 μM,"[3]; pH 7.4, half-life (T1/2) in human liver microsomes",> 90 min
same,IC50,[4],2700 nM
